Where two headings read alike, the source gives them in different places.
Tests used:
His-Brd3(20-477) = His-Brd3(20-477) (Homo sapiens (Human), UniProt Q15059); experiment: TR-FRET in-vitro binding assay for BRD3; settings: biochemical
Experimental: (§1) TR-FRET In-Vitro Binding Assays for BRD2, BRD3, and BRD4:
(§2) All assays were performed in 384-well microtiter plates. Each assay plate contained 8-point serial dilutions for 40 test compounds, plus 16 high- and 16 low controls. Liquid handling and incubation steps were done on an Innovadyne Nanodrop Express equipped with a robotic arm (Thermo CatX, Perkin Elmer/Caliper Twister II) and an incubator (Liconic STX40, Thermo Cytomat 2C450). The assay plates were prepared by addition of 50 nl per well of compound solution in 90% DMSO HummingBird nanodispenser (Zinsser Analytic). The assay was started by stepwise addition of 4.5 μL per well of bromo domain protein (50 mM HEPES, pH 7.5, 0.005% Tween20, 0.1% BSA, 50 mM NaCl, 45 nM His-Brd2(60-472) or 45 nM His-Brd3(20-477) or 45 nM His-Brd4(44-477) all proteins produced in-house) and 4.5 μL per well of peptide solution (50 mM HEPES, pH 7.5, 0.005% Tween20, 0.1% BSA, 50 mM NaCl, 60 nM acetyl-histone H4 (AcK 5, 8, 12, 16) (Biosyntan GmbH)). Reactions were incubated at 30° C. for 35 minutes. Subsequently 4.5 μL per well detection mix (50 mM HEPES, pH 7.5, 0.005% Tween20, 0.1% BSA, 50 mM NaCl, 3 nM Eu-labeled anti-His6 antibody, 21 nM streptavidin-allophycocyanin) were added. After minutes incubation at 30° C., plates were measured in a Perkin Elmer EnVision multilabel reader.
(§3) Test compounds were dissolved in DMSO (10 mM) and transferred into 1.4 mL flat bottom or V-shaped Matrix tubes carrying a unique 2D matrix. The stock solutions were stored at […] if not used immediately. For the test procedure the vials were defrosted and identified by a scanner whereby a working sheet was generated that guided the subsequent working steps. Compound dilutions were made in 96 well plates. This format enabled the assay of maximally […] at 8 concentrations (single points) including 4 reference compounds, if desired (known BET inhibitors from the prior art, for this and other assays of the type disclosed herein). The dilution protocol included the production of “pre-dilution plates”, “master plates” and “assay plates”.
(§4) Polypropylene 96-well plates were used as pre-dilution plates. […] All dilution steps were done on a HamiltonSTAR robot.
(§5) 30 μL of individual compound dilutions including standard compound and controls of the 4 “pre-dilution plates” were transferred into a 384-well “master plate” including the following concentrations 10000, […], 1000, 300, 100, 30, 10 and 3 μM, respectively in 90% of DMSO.
(§6) Identical “assay plates” were then prepared by pipetting 50 nL each of compound dilutions of the “master plates” into 384-well “assay plates” by means of a HummingBird 384-channel dispenser. These plates were used directly for the assay which was performed in a total volume of 13.55 μL.

His-Brd2(60-472) = His-Brd2(60-472) (Homo sapiens (Human), UniProt P25440); experiment: TR-FRET in-vitro binding assay for BRD2; settings: biochemical
Chain of His-Brd2(60-472) (P25440 60-472): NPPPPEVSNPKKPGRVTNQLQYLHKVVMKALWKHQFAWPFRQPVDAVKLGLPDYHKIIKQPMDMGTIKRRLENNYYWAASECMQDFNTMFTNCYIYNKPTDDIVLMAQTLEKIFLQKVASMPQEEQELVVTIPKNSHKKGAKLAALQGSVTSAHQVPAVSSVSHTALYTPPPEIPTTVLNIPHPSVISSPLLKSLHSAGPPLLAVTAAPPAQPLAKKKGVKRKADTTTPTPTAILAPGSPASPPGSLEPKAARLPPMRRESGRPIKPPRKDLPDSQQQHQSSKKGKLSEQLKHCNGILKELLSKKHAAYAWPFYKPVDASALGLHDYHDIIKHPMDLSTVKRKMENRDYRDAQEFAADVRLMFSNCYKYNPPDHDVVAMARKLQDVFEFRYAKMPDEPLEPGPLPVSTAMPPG
Experimental: as §1, §2, §3, §4, §5, §6

His-Brd4(44-477) = His-Brd4(44-477) (Homo sapiens (Human), UniProt O60885); experiment: TR-FRET in-vitro binding assay for BRD4; settings: biochemical
Experimental: as §1, §2, §3, §4, §5, §6

MV-4-11 cells = experiment: Cell growth inhibition assay (CellTiter-Glo), MV-4-11; type: cell-based; settings: Homo sapiens, MV4-11, read-out: MV-4-11 TGI
Experimental: (§7) Cell Growth Inhibition Assay
(§8) The human leukemia cell lines MV-4-11, THP-1 and K-562 were employed to characterize the effect of BET inhibitors on cellular proliferation and viability. Cells were obtained from the American Type Culture Collection (ATCC) and cultured at 37° C. in a humidified 5% CO2 incubator in the following media: MV-4-11: DMEM high glucose (Animed #1-26F01-I), 10% FCS (Animed #2-01F26-I), 4 mM L-Glutamine (Animed #5-10K50), 1 mM Sodium Pyruvate (Animed # G03625P), 1× Penicillin-Streptomycin (Animed # F12478P); K-562: Iscove's MEM (Animed #1-28F16-I), 10% FCS (Animed #2-01F26-I), 4 mM L-Glutamine (Animed #5-10K50), 1× Penicillin-Streptomycin (Animed # F12478P); THP-1: RPMI-1640 (Animed #1-41F01-I), 10% FCS (Animed #2-01F26-I), 2 mM L-Glutamine (Animed #5-10K50), 10 mM HEPES (Animed #5-31F100), 1 mM Sodium Pyruvate (Animed # G03625P), 1× Penicillin-Streptomycin (Animed # F12478P). The AML lines MV-4-11 and THP-1 are very sensitive to BET inhibitors and show massive cell death upon BET inhibition (Zuber et al., Nature, 478 (2011), 524-8). Compound-mediated suppression of cell proliferation/viability was assessed by quantification of cellular ATP levels using the CellTiter-Glo (CTG) reagent (Promega). Briefly, cells were seeded in 20 μl fresh medium into 384-well plates, followed by addition of 5 μL medium containing compound dilutions at 5-fold their final intended concentration. Dose-response effects were assessed by 3-fold serial dilutions of the test compound, starting at 10 μM. Following incubation of the cells for days at 37° C. and 5% CO2, the effect of inhibitors on cell viability was quantified following addition of 20 μl CTG and luminescence quantification (integration time: 100 ms) as per vendor manual, using a correspondingly equipped Tecan M200 multi-mode platereader (TECAN, Switzerland). For data analysis, the assay background value determined in wells containing medium, but no cells, was subtracted from all data points. To enable differentiation of cytotoxic from cytostatic compounds, the number of viable cells is assessed relative to that observed at the time of compound addition using a separate cell plate (day 0). The effect of a particular test compound concentration on cell proliferation/viability is expressed as percentage of the background- and day 0-corrected luminescence reading obtained for cells treated with vehicle only (DMSO, 0.1% final concentration), which is set as 100%, whereas that luminescence reading for wells containing medium is set as −100%. Compound concentrations leading to half-maximal (IC50) and total growth inhibition (TGI) were determined using standard four parameter curve fitting.

THP-1 cells = experiment: Cell growth inhibition assay (CellTiter-Glo), THP-1; type: cell-based; settings: Homo sapiens, read-out: THP-1 TGI
Experimental: as §7, §8

K-562 cells = experiment: Cell growth inhibition assay (CellTiter-Glo), K-562; type: cell-based, human
Experimental: as §7, §8

[1] = target: His-CREBBP (1081-1197) bromodomain (Homo sapiens (Human), UniProt Q92793); experiment: AlphaScreen in-vitro binding assay for CREBBP; settings: biochemical
Chain of His-CREBBP (1081-1197) bromodomain (Q92793 1081-1197): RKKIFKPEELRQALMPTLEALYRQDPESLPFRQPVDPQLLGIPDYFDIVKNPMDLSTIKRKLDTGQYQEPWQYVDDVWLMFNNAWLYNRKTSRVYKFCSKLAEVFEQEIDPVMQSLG
Experimental: AlphaScreen In-Vitro Binding Assay for CREBBP
In order to assess bromodomain selectivity, we set up a binding assay using the bromodomain encoded by the CREBBP gene. […] Reactions were incubated at 30° C. for 35 minutes. Subsequently 4.5 μL per well detection mix (50 mM HEPES, pH 7.5, 0.005% Tween20, 0.02% BSA, 150 mM NaCl, 45 μg/ml Ni-chelate acceptor beads, 45 μg/mL streptavidin-donor beads) (Perkin Elmer)) were added. After 60 minutes incubation at room temperature, plates were measured in a Perkin Elmer EnVision multilabel reader. IC50 values were determined from percent inhibition values at different compound concentrations by non-linear regression analysis.
as §3, §4
These plates were used directly for the assay which was performed in a total volume of 13.55 μL.

[2] = Homo sapiens, K562, read-out: K-562 TGI

Chain of His-Brd3(20-477) (Q15059 20-477): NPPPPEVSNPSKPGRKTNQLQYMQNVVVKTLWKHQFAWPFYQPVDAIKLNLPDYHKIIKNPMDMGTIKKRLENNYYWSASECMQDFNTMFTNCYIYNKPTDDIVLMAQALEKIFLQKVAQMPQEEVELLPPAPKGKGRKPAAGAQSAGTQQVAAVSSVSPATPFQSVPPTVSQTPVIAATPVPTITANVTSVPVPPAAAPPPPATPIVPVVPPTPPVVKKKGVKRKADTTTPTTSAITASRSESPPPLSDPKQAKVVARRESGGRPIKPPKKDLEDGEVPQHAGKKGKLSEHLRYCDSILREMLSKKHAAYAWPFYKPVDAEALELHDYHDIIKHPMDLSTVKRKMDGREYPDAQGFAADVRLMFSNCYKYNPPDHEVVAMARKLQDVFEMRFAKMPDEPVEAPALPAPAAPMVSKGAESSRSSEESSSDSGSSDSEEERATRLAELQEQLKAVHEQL

SMILES	IC50 (His-Brd3(20-477)) [nM]	IC50 (His-Brd2(60-472)) [nM]	IC50 (His-Brd4(44-477)) [nM]	IC50 [1] [nM]	IC (total growth inhibition) (MV-4-11 cells) [µM]	IC (total growth inhibition) (THP-1 cells) [µM]	IC (total growth inhibition) (K-562 cells; [2]) [µM]	IC (total growth inhibition) (K-562 cells; read-out: K-562 TGI) [µM]
Cc1[nH]nc2c1C(c1ccc(Cl)cc1F)N(c1cc(C)c(=O)n(C)c1)C2=O (stereo not shown) [Example 196, 4-(4-chloro-2-fluorophenyl)-5-(1,5-dimethyl-6-oxo-1,6-dihydropyridin-3-yl)-3-methyl-4,5-dihydropyrrolo[3,4-c]pyrazol-6(2H)-one]					0.266	0.53	> 10	
Cc1cc(N2C(=O)c3nn(C)cc3[C@H]2c2ccc(Cl)cc2)cn(C)c1=O [Example 16, (R)-4-(4-chlorophenyl)-5-(1,5-dimethyl-6-oxo-1,6-dihydropyridin-3-yl)-2-methyl-4,5-dihydropyrrolo[3,4-c]pyrazol-6(2H)-one]	66	100	81		0.116	0.207	> 10	
Cc1c2c(nn1C)C(=O)N(c1cc(Cl)c(=O)n(C)c1)[C@@H]2c1ccc(Cl)cc1 [Example 7, (R)-5-(5-chloro-1-methyl-6-oxo-1,6-dihydropyridin-3-yl)-4-(4-chlorophenyl)-2,3-dimethyl-4,5-dihydropyrrolo[3,4-c]pyrazol-6(2H)-one]	67	100	72		0.107	0.191	> 10	
COc1ncccc1-n1nc2c(c1C)C(c1ccc(F)cc1F)N(c1cc(C)c3nnc(C)n3c1)C2=O (stereo not shown) [Example 193, 4-(2,4-difluorophenyl)-5-(3,8-dimethyl-[1,2,4]triazolo[4,3-a]pyridin-6-yl)-2-(2-methoxypyridin-3-yl)-3-methyl-4,5-dihydropyrrolo[3,4-c]pyrazol-6(2H)-one]					0.0985	0.141	> 10	
Cc1cc(N2C(=O)c3nn(C(C)C)c(C)c3C2c2ccc(Cl)cc2F)cn2c(C)nnc12 (stereo not shown) [Example 169, 4-(4-chloro-2-fluorophenyl)-5-(3,8-dimethyl-[1,2,4]triazolo[4,3-a]pyridin-6-yl)-2-isopropyl-3-methyl-4,5-dihydropyrrolo[3,4-c]pyrazol-6(2H)-one]					0.0576	0.121	> 10	
Cc1[nH]nc2c1C(c1ccc(Cl)cc1)N(c1cc(Cl)c(=O)n(C)c1)C2=O (stereo not shown) [Example 5, 5-(5-chloro-1-methyl-6-oxo-1,6-dihydropyridin-3-yl)-4-(4-chlorophenyl)-3-methyl-4,5-dihydropyrrolo[3,4-c]pyrazol-6(2H)-one]	370	730	360	5600				
Cc1nn(C2CC2)c2c1[C@H](c1ccc(Cl)cc1)N(c1cc(C)c3nnc(C)n3c1)C2=O [Example 118, (S)-4-(4-chlorophenyl)-1-cyclopropyl-5-(3,8-dimethyl-[1,2,4]triazolo[4,3-a]pyridin-6-yl)-3-methyl-4,5-dihydropyrrolo[3,4-c]pyrazol-6(1H)-one]					3.35	> 10	> 10	

Second part, led by results:

IC50 (His-Brd3(20-477)) [nM]	IC50 (His-Brd2(60-472)) [nM]	IC50 (His-Brd4(44-477)) [nM]	IC50 [1] [nM]	SMILES	IC (total growth inhibition) (MV-4-11 cells) [µM]	IC (total growth inhibition) (THP-1 cells) [µM]	IC (total growth inhibition) (K-562 cells; [2]) [µM]	IC (total growth inhibition) (K-562 cells; read-out: K-562 TGI) [µM]
27000	30000	23000		Cc1c2c(nn1C1CC1)C(=O)N(c1cc(Cl)c(=O)n(C)c1)[C@H]2c1ccc(Cl)cc1 [Example 18, (S)-5-(5-chloro-1-methyl-6-oxo-1,6-dihydropyridin-3-yl)-4-(4-chlorophenyl)-2-cyclopropyl-3-methyl-4,5-dihydropyrrolo[3,4-c]pyrazol-6(2H)-one]	4.04	> 10	> 10	
43	48	47		Cc1cc(N2C(=O)c3nn(C4CC4)c(C)c3[C@H]2c2ccc(Cl)cc2)cn(C)c1=O [Example 21]	0.0378	0.0687	> 10	
120	98	130		COc1ncc(-n2nc(C)c3c2C(=O)N(c2cc(Cl)c(=O)n(C)c2)C3c2ccc(Cl)cc2)c(OC)n1 (stereo not shown) [Example 53, 5-(5-chloro-1-methyl-6-oxo-1,6-dihydropyridin-3-yl)-4-(4-chlorophenyl)-1-(2,4-dimethoxypyrimidin-5-yl)-3-methyl-4,5-dihydropyrrolo[3,4-c]pyrazol-6(1H)-one]	0.372	0.685	> 10	
120	86	67	> 37000	CNc1cc(N2C(=O)c3c(c(C)nn3C3CC3)C2c2ccc(Cl)cc2)nn2c(C)nnc12 (racemic) [Example 113, 4-(4-chlorophenyl)-1-cyclopropyl-3-methyl-5-(3-methyl-8-(methylamino)-[1,2,4]triazolo[4,3-b]pyridazin-6-yl)-4,5-dihydropyrrolo[3,4-c]pyrazol-6(1H)-one]				>10
85	75	96	380	Cc1cc(N2C(=O)c3nn(C(C)C)cc3C2c2ccc(Cl)cc2)cn(C)c1=O (stereo not shown) [Example 41, 4-(4-chlorophenyl)-5-(1,5-dimethyl-6-oxo-1,6-dihydropyridin-3-yl)-2-isopropyl-4,5-dihydropyrrolo[3,4-c]pyrazol-6(2H)-one]				

From patent US8975417B2, “Pyrazolopyrrolidine derivatives and their use in the treatment of disease” (Novartis AG, priority 2013, dated 2015)
